Results: patent US20260083722A1, “BIFUNCTIONAL DEGRADERS COMPRISING ELECTROPHILIC PROTACS THAT ENGAGE DCAF1 AND PHARMACEUTICAL COMPOSITIONS COMPRISING THE SAME” (THE SCRIPPS RESEARCH INSTITUTE, priority 2022, published 2026)
Where a SMILES comes first, the peptide text is derived from it. The star is where a group is joined. Cbz = O=C(OCc1ccccc1)*

How the values were obtained:
HA-FKBP12 = target: T1, HA-FKBP12 (Homo sapiens, UniProt P62942); assay: HA-FKBP12 abundance by Western blotting in transfected HEK293T cells; type: cell-based; details: for quantity of HA-FKBP12 and FLAG-DCAF1 in inhibitor-treated cells: HEK293T co-expressing HA-FKBP12 and FLAG-DCAF1
T1 construct: expressed in transfected cells; host or cells: HEK293T
Text: (A) Left, western blots showing concentration-dependent effects of YT47R (upper) and YT41R (lower) on FKBP12 abundance in HEK293T cells expressing HA-FBKP12 with or without co-expression of FLAG-DCAF1. Right, quantification of HA-FKBP12 abundance in the indicated experimental groups. (B) Left, western blots showing effects of YT47R versus YT47S (upper) and YT41R versus YT41S (lower) on FKBP12 abundance in HEK293T cells co-expressing HA-FBKP12 and FLAG-DCAF1. Right, quantification of HA-FKBP12 abundance in the indicated experimental groups. (C) Western blots showing effects of YT47R (left blots) and YT41R (right blots) on FKBP12 abundance in HEK293T cells co-expressing HA-FBKP12 and either FLAG-DCAF1-WT or FLAG-DCAF1-C1113A mutant. Quantification of HA-FKBP12 abundance in the indicated experimental groups is shown in the adjacent bar graphs. For (A-C), FKBP12 abundance was determined at 24 h post-treatment with compounds, and data are mean values±SEM for three independent experiments. Statistical significance was calculated with unpaired two-tailed Student's t-tests comparing YT41R/YT47R- and DMSO-treated cells. ***P<0.001, ****P<0.0001.
(A) Left, western blots showing effects of proteasome (MG132) and Neddylation (MLN4924) inhibitors (1 h pre-treatment) on YT47R- and YT41R-dependent degradation of FKBP12 in HEK293T cells co-expressing HA-FBKP12 and FLAG-DCAF1. FKBP12 abundance was determined at 24 h post-treatment with YT47R or YT41R. Right, quantification of HA-FKBP12 abundance in the indicated experimental groups. (B) Left, western blots showing effects of the FKBP12 ligand SLF (20 μM) or DCAF1 ligand MY-11B (1 h pre-treatment with 20 μM SLF or 5 μM MY-11B) on YT47R- and YT41R-dependent degradation of FKBP12 in HEK293T cells co-expressing HA-FBKP12 and FLAG-DCAF1. FKBP12 abundance was determined at 24 h post-treatment with YT47R or YT41R. Right, quantification of HA-FKBP12 abundance in the indicated experimental groups. (C) Left, western blots showing effects of MY-11A or MY-11B (5 μM, 1 h pre-treatment) on YT47R- and YT41R-dependent degradation of FKBP12 in HEK293T cells co-expressing HA-FBKP12 and FLAG-DCAF1. FKBP12 abundance was determined at 24 h post-treatment with YT47R or YT41R. Right, quantification of HA-FKBP12 abundance in the indicated experimental groups. For (A-C), data are mean values±SEM for three-five independent experiments. Statistical significance was calculated with unpaired two-tailed Student's t-tests comparing YT41R/YT47R- and DMSO-treated cells. ****P<0.0001.
Figure S3. Concentration-dependent degradation of FKBP12 by DCAF1-directed electrophilic PROTACs. Top, western blots showing concentration-dependent effects of YT47R and YT41R on FKBP12 abundance in HEK293T cells co-expressing HA-FBKP12 and FLAG-DCAF1. Data are mean values±SEM for four independent experiments. Statistical significance was calculated with unpaired two-tailed Student's t-tests comparing YT41R/YT47R- and DMSO-treated cells. *P<0.1, **P<0.01, ***P<0.001, ****P<0.0001.
Figure S4. Time-dependent degradation of FKBP12 by DCAF1-directed electrophilic PROTACs. Top, western blots showing time-dependent effects of YT47R and YT41R (2 μM each) on FKBP12 abundance in HEK293T cells co-expressing HA-FBKP12 and FLAG-DCAF1. Data are mean values±SEM for four independent experiments. Statistical significance was calculated with unpaired two-tailed Student's t-tests comparing YT41R/YT47R- and DMSO-treated cells. ****P<0.0001.
We next treated HEK293T cells co-transfected with FLAG epitope-tagged full length DCAF1 (a.a.'s 1-1507) and HA (hemagglutinin) epitope-tagged FKBP12 with a concentration range of YT41R or YT47R and, after 24 h, measured HA-FKBP12 abundance by Western blotting.

DCAF1_C1113 = target: T2, DCAF1_C1113 (Homo sapiens, UniProt Q9Y4B6); assay: cysteine-directed MS-ABPP (IA-DTB probe) in primary human T cells; type: cell-based; details: 3 h; for reactivity with DCAF1_C1113: 20 μM compound
T2 construct: endogenous in cells; host or cells: primary human T cells
Protocol: (A) Structures of a set of stereochemically defined azetidine acrylamides MY-1A (1), MY-1B (2), MY-3A (3), and MY-3B (4). (B) Heat map showing cysteines that were substantially engaged by azetidine acrylamides (>75% by at least one compound) in human T cells (20 μM compound, 3 h) as determined by MS-ABPP using an iodoacetamide desthiobiotin (IA-DTB) probe following previously described methods^21. Red arrow marks DCAF1_C1113. (C) MS-ABPP quantification of IA-DTB labeling of DCAF1_C1113 from T cells treated with the indicated azetidine acrylamides (20 μM, 3 h) relative to control T cells treated with DMSO. (D) MS-ABPP quantification of IA-DTB labeling of the indicated cysteines in DCAF1 from T cells treated with MY-1B (20 μM, 3 h) relative to control T cells treated with DMSO. For (B-D), data represent average values (for C and D, average values±SEM) from three independent experiments each performed with two technical replicates, where cysteines were required to have been quantified in at least two experiments for interpretation.
Guided by the principles of diversity-oriented synthesis^22, specifically the design of compounds with densely functionalized and entropically constrained sp^3-rich cores bearing one or more stereocenters, we generated a set of stereoisomeric azetidine acrylamides (FIG. 1A) and screened these compounds by cysteine-directed MS-ABPP^23-26 in primary human T cells. Across more than 10000 quantified cysteines, these experiments uncovered several azetidine acrylamide-cysteine interactions (FIG. 1B and Dataset S1), including the stereo-(FIG. 1B, C) and site-(FIG. 1D) selective engagement of C1113 on the E3 ligase substrate adaptor DCAF1. […] Other quantified cysteines in DCAF1 were unaffected by MY-1B (FIG. 1D).

[1] = target: T3, recombinant DCAF1-WT (a.a.'s 1046-1396) (Homo sapiens, UniProt Q9Y4B6); assay: gel-ABPP with recombinant purified DCAF1-WT doped into HEK293T cell proteome; type: binding; details: for block of MY-11B labeling of recombinant DCAF1 by pre-treatment: 6.25-100 μM, MY-11B 25 μM, 1 h
T3 construct: form of DCAF1 containing the WD40 domain (amino acids (a.a.'s) 1046-1396); made in house
Text: FIG. 2 that azetidine acrylamides stereo- and site-selectively engage recombinant DCAF1_C1113. (A) Domain map of DCAF1 with the region used for recombinant protein studies marked in a bracket (a.a.'s 1046-1396) and C1113 highlighted in red. (B) Crystal structure of a DCAF1-Vpx complex (pdb: 5AJA). DCAF1 (a.a.'s 1046-1396) is shown in cyan, Vpx is shown in yellow, and C1113, which is located at the DCAF1-Vpx interface is shown in red. (C) Structures of alkyne-modified azetidine acrylamides MY-11A (5) and MY-11B (6). (D) Gel-ABPP showing the concentration-dependent reactivity of MY-11A and MY-11B (1 h) reactivity with recombinant, purified DCAF1-WT or the DCAF1-C1113A mutant (0.06 μg/μL of DCAF1 protein per sample) doped into HEK293T cell proteome (1 μg/μL). MY-11A/B labeling of proteins was visualized by CuAAC conjugation to an azide-rhodamine tag followed by SDS-PAGE and in-gel fluorescence scanning. Results are from a single experiment representative of two independent experiments. (E) Gel-ABPP showing the concentration-dependent effects of MY-1A and MY-1B on MY-11B reactivity with DCAF1-WT. Samples were treated with MY-1A/B for 2 h, followed by MY-11B (25 μM, 1 h) and analyzed as described in (D). Left, quantification of data presented as mean values±SEM from two independent experiments. Right, representative gel-ABPP results. (D, E) Lower images are Coomassie blue-stained gels corresponding to ABPP gels shown in upper images.
(A) Structures of candidate electrophilic PROTACs YT41R (7), YT41S (8), YT47R (9), and YT47S (10). (B) Gel-ABPP showing the concentration-dependent effects of YT41R and YT47R on MY-11B reactivity with DCAF1-WT protein (0.06 μg/μL of DCAF1 protein per sample) doped into HEK293T cell proteome (1 μg/μL). Also shown are the effects of YT41S and YT47S tested at a single concentration (100 μM). Samples were treated with heterobifunctional compounds for 2 h, followed by MY-11B (25 μM, 1 h) and analyzed as described in FIG. 2D. Left, representative gel-ABPP results. Lower image is Coomassie blue-stained gel corresponding to ABPP gel shown in upper image. Right, quantification of data presented as mean values±SEM from two independent experiments.
DCAF1 is a multi-domain substrate receptor for CRL4 ligases (FIG. 2A) that has diverse physiological and disease functions, including being co-opted by the HIV-2 virus to promote degradation of the antiviral host protein SAMHD1^27-28. […] We verified the stereo- and site-selective engagement of DCAF1_C1113 by azetidine acrylamides using alkynylated analogues of MY-1A and MY-1B (MY-11A (5) and MY-11B (6), respectively; FIG. 2C). For these experiments, we doped into HEK293T cell lysates a recombinantly expressed and purified form of DCAF1 containing the WD40 domain (amino acids (a.a.'s) 1046-1396), in complex with the CRL4 adaptor protein DDB1^31, and exposed these samples to varying concentrations of MY-11A or MY-11B. After 1 h, we assessed MY-11A and MY-11B engagement of DCAF1 by copper-catalyzed azide-alkyne cycloaddition (CuAAC)^32 with an azide-rhodamine reporter tag followed by SDS-PAGE and in-gel fluorescence scanning^33. […] We used gel-ABPP to quantify an in vitro target engagement value (TE50) of approximately 25 μM (95% C.I.=13-38 μM) for MY-1B labeling of DCAF1 (FIG. 2E, left).

T3 sequence (Q9Y4B6 1046-1396): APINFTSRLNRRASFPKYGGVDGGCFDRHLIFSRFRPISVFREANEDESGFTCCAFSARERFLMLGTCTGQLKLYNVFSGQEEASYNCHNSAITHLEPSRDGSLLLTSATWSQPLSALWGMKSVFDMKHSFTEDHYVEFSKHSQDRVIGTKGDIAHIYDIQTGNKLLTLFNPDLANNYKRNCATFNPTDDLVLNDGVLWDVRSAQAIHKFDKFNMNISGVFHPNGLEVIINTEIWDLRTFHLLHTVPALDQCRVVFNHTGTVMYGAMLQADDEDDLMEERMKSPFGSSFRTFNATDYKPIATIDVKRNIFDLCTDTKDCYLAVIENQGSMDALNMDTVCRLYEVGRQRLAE
T3 sequence (Q16531 whole entry partner, the tested form may be a part): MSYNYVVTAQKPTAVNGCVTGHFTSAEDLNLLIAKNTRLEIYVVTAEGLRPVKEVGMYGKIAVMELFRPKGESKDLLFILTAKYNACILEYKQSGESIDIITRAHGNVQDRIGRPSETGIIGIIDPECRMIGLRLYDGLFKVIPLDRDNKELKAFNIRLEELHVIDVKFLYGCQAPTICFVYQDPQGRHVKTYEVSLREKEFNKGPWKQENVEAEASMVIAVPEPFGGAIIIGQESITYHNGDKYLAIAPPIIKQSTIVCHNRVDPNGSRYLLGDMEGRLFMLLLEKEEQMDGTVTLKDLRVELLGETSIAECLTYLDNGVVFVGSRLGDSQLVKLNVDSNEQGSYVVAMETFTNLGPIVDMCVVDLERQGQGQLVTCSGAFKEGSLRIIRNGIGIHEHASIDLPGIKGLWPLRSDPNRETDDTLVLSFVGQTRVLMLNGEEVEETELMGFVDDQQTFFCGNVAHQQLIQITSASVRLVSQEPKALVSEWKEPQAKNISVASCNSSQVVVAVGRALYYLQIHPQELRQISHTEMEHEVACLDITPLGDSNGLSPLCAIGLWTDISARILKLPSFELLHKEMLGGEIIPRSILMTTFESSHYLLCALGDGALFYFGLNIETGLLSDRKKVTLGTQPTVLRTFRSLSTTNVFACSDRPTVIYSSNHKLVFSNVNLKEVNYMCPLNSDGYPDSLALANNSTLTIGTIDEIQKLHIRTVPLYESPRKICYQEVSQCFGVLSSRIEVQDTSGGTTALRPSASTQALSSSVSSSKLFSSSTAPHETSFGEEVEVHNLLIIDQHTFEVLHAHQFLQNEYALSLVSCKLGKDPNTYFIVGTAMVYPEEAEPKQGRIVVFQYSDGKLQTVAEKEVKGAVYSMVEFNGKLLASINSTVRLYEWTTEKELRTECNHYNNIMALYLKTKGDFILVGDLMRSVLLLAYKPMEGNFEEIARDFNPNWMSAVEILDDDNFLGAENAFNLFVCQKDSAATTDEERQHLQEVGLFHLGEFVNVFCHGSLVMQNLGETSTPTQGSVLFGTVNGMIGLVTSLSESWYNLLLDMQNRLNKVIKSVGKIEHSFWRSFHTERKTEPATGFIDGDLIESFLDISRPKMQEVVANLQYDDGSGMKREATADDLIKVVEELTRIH
T1 sequence (P62942 whole entry): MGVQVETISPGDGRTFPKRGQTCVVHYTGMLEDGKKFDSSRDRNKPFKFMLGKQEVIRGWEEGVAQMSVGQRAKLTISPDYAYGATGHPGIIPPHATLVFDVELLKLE
T2 sequence (Q9Y4B6 whole entry): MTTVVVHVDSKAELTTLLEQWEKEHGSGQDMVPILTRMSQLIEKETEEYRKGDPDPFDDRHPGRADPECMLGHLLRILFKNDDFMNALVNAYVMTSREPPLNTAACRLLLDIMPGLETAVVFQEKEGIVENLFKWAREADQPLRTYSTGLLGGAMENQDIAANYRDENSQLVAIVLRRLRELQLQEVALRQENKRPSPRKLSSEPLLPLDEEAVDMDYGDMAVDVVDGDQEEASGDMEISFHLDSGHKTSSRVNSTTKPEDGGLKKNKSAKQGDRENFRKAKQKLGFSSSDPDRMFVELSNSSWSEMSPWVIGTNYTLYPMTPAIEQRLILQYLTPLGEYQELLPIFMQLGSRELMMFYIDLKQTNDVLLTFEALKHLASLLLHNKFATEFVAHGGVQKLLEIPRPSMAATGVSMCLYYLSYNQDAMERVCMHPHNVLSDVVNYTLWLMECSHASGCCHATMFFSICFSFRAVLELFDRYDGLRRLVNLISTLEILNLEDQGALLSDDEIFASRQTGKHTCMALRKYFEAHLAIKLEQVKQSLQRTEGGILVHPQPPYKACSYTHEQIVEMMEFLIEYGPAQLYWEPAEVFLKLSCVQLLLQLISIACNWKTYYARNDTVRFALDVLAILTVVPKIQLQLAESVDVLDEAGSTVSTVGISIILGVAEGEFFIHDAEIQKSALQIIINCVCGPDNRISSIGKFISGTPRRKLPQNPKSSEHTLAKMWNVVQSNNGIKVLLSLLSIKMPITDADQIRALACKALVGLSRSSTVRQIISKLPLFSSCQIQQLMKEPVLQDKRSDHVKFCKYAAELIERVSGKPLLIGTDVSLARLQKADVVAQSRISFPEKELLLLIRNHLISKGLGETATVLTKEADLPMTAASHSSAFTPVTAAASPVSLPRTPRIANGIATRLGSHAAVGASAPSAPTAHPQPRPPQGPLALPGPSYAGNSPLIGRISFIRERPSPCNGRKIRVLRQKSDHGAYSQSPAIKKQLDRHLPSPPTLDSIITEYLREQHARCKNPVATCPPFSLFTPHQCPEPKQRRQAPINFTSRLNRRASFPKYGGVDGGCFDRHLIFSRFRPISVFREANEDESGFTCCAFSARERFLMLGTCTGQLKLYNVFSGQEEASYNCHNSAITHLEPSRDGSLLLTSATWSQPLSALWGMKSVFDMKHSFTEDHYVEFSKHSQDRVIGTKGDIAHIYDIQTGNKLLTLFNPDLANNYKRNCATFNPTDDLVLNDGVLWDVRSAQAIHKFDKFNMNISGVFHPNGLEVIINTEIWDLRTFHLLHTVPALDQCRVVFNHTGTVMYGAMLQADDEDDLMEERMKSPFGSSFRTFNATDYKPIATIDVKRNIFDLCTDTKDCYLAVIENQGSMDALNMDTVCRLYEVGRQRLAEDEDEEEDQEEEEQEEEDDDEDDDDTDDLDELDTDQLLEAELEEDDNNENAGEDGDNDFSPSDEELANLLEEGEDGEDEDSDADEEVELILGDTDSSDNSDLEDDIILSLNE

Structure (SMILES): CC(C)C[C@@H](C=O)NC(=O)[C@H](CC(C)C)NC(=O)[C@H](CC(C)C)NC(=O)OCc1ccccc1 [MG132, reference compound] (Cbz-Leu-Leu-Leu-aldehyde)
- effect on YT41R/YT47R-mediated degradation of HA-FKBP12 (HA-FKBP12; 5 μM, 1 h pre-treatment followed by 24 h co-treatment with YT41R/YT47R): blocked
- quantity of HA-FKBP12 and FLAG-DCAF1 in inhibitor-treated cells (HA-FKBP12): increased quantities

Structure (SMILES): NS(=O)(=O)OC[C@@H]1C[C@@H](n2ccc3c(N[C@H]4CCc5ccccc54)ncnc32)C[C@@H]1O [MLN4924, reference compound]
- quantity of HA-FKBP12 and FLAG-DCAF1 in inhibitor-treated cells (HA-FKBP12): without causing alterations
- effect on YT41R/YT47R-mediated degradation of HA-FKBP12 (HA-FKBP12; NAE inhibitor, 1 h pre-treatment): impaired

Structure (SMILES): C=CC(=O)N1C[C@@H](c2ccc(Br)cc2)[C@H]1C(=O)Nc1cccc2cccnc12 [MY-1A, (2S,3R)-1-acryloyl-3-(4-bromophenyl)-N-(84uinoline-8-yl) azetidine-2-carboxamide]
- reactivity with DCAF1_C1113 (DCAF1_C1113): inactive
- block of MY-11B labeling of recombinant DCAF1 by pre-treatment ([1]; 2 h pre-treatment): not

Structure (SMILES): C=CC(=O)N1C[C@H](c2ccc(Br)cc2)[C@@H]1C(=O)Nc1cccc2cccnc12 [MY-1B, (2R,3S)-1-acryloyl-3-(4-bromophenyl)-N-(84uinoline-8-yl) azetidine-2-carboxamide]
- reactivity with DCAF1_C1113 (DCAF1_C1113): strongest reactivity
- effect on other quantified cysteines in DCAF1 (DCAF1_C1113; 20 μM): unaffected
- block of MY-11B labeling of recombinant DCAF1 by pre-treatment ([1]; 2 h pre-treatment): blocked
- IC50 ([1]; gel-ABPP, 2 h pre-treatment, 95% C.I.=13-38 μM, read-out: in vitro target engagement value (TE50) for labeling of DCAF1): ~25 µM

Structure (SMILES): C=CC(=O)N1C[C@@H](c2ccc(Br)cc2)[C@@H]1C(=O)Nc1cccc2cccnc12 [MY-3B, (2S,3S)-1-acryloyl-3-(4-bromophenyl)-N-(87uinoline-8-yl) azetidine-2-carboxamide]
- reactivity with DCAF1_C1113 (DCAF1_C1113): weaker enantioselective interaction

Structure (SMILES): CCC(C)(C)C(=O)C(=O)N1CCCC[C@H]1C(=O)O[C@H](CCc1ccc(OC)c(OC)c1)c1cccc(N)c1 [SLF, reference compound]
- effect on YT41R and YT47R-mediated degradation of HA-FKBP12 (HA-FKBP12; 20 μM, 1 h pre-treatment): blocked

Structure (SMILES): C=CC(=O)C1C[C@@H](c2ccc(C(=O)NCCOCCOCCNC(=O)COc3cccc([C@@H](CCc4ccc(OC)c(OC)c4)OC(=O)[C@@H]4CCCCN4C(=O)C(=O)C(C)(C)CC)c3)cc2)[C@H]1C(=O)Nc1cccc2cccnc12 (stereo partly shown) [YT41S]
- inhibition of MY-11B probe reactivity with recombinant DCAF1 ([1]; 2 h, then MY-11B 25 μM 1 h, YT41S and YT47S at single concentration 100 μM): did not impair
